Data taken from patent US20240317776A1, “SOLID FORMS OF 4-(3,3-DIFLUORO-2,2-DIMETHYL-PROPANOYL)-3,5-DIHYDRO-2H-PYRIDO[3,4-F][1,4]OXAZEPINE-9-CARBONITRILE” (Denali Therapeutics Inc., priority 2022, published 2024).

Key:
Assay type in all cases: physicochemical
[1] = Dynamic vapor sorption (DVS)
Procedure: DVS was measured via a SMS (Surface Measurement Systems) DVS Intrinsic. The relative humidity at 25° C. were calibrated against deliquescence point of LiCl, Mg(NO3)2 and KCl.
(onset temperature). Considering the low TGA weight loss and single sharp DSC endotherm, Form A was postulated to be an anhydrate. […] The HPLC purity of starting material was measured as 99.78 area % (see chromatogram of FIG. 6) and the impurity summary is listed in Table 2.

[2] = Physical and chemical stability of solid on storage (XRPD, HPLC purity)
Procedure: To evaluate the physical and chemical stability, Compound (1) Form A was stored in 3 conditions (40° C./75% RH; 25° C./60% RH; and 60° C.) for one and four weeks.

[3] = Kinetic solubility in bio-relevant media and H2O; settings: for Final Form: 37° C.
Procedure: Solids were suspended in FaSSIF, FeSSIF, SGF and H2O with target conc. of ˜10 mg/mL. The suspensions were agitated on a rolling incubator at 25 rpm (in the incubator set at 37° C.) for 1, 4 and 24 hrs. At each time point, 1 mL of the suspension was pipetted out for centrifugation at 15000 rpm (3 min) and filtration through 0.45 μm membrane to obtain supernatant for HPLC solubility and pH tests, the residual solids were analyzed by XRPD.

[4] = 24-Hrs solubility in pH buffers; settings: for Final Form: 24 hrs
Procedure: 24-Hrs solubility of Form A was measured in pH buffers (i.e., pH 2.0, 4.0, 6.0, 7.0, 8.0) at RT. Solids were suspended in pH buffers with target conc. of ˜10 mg/mL.

[5] = Solution stability in pH buffers; settings: 37° C.
Procedure: Solution stability study was performed in pH 2.0/4.0/6.0/7.0 (24 hrs) and pH 8.0 (24 hrs and 96 hrs) buffers. Solids were dissolved with pH buffers with target conc. of ˜0.5 mg/ml to form clear solutions and stored at 37° C. for 24 hrs or 96 hrs.

[6] = all conditions (40° C./75% RH, 25° C./60% RH, 60° C.; one and four weeks)
[7] = pH 7.0 (50 mM Phosphate), 24 hrs
[8] = pH 8.0 (50 mM Phosphate), 24 hrs
[9] = pH 8.0 (50 mM Phosphate), 96 hrs

With `CC(C)(C(=O)N1CCOc2c(C#N)cncc2C1)C(F)F` [Form A, 4-(3,3-difluoro-2,2-dimethyl-propanoyl)-3,5-dihydro-2H-pyrido[3,4-f][1,4]oxazepine-9-carbonitrile] the “water uptake (DVS)” value ([1]; 25° C./80% RH) was 0.024%, the “form change after DVS test (XRPD)” value ([1]; after DVS test) was “no form change” and the “API (RRT 1.00)” value ([2]; 1 week, 25° C./60% RH) was 99.92 % Area. The Description ([2]; 1 week, 25° C./60% RH) was “White powder”, the “Final Form” value ([2]; 1 week, 25° C./60% RH) was “Form A” and the “Imp.1 (RRT 0.68)” value ([2]; 1 week, 25° C./60% RH) was 0.08 % Area. For the same compound, the “Purity vs. initial (%)” value ([2]; 1 week, 25° C./60% RH) was 100.0%, the “API (RRT 1.00)” value ([2]; 1 week, 40° C./75% RH) was 99.89 % Area and the Description ([2]; 1 week, 40° C./75% RH) was “White powder”. The “Final Form” value ([2]; 1 week, 40° C./75% RH) was “Form A”, the “Imp.1 (RRT 0.68)” value ([2]; 1 week, 40° C./75% RH) was 0.11 % Area and the “Purity vs. initial (%)” value ([2]; 1 week, 40° C./75% RH) was 100.0%. The “API (RRT 1.00)” value ([2]; 1 week, 60° C.) was 99.90 % Area, the Description ([2]; 1 week, 60° C.) was “White powder” and the “Final Form” value ([2]; 1 week, 60° C.) was “Form A”. The “Imp.1 (RRT 0.68)” value ([2]; 1 week, 60° C.) was 0.10 % Area, the “Purity vs. initial (%)” value ([2]; 1 week, 60° C.) was 100.0% and the “API (RRT 1.00)” value ([2]; 4 weeks, 25° C./60% RH) was 99.90 % Area. The Description ([2]; 4 weeks, 25° C./60% RH) was “White powder”, the “Final Form” value ([2]; 4 weeks, 25° C./60% RH) was “Form A” and the “Imp.1 (RRT 0.68)” value ([2]; 4 weeks, 25° C./60% RH) was 0.10 % Area. The “Purity vs. initial (%)” value ([2]; 4 weeks, 25° C./60% RH) was 100.0%, the “API (RRT 1.00)” value ([2]; 4 weeks, 40° C./75% RH) was 99.90 % Area and the Description ([2]; 4 weeks, 40° C./75% RH) was “White powder”. The “Final Form” value ([2]; 4 weeks, 40° C./75% RH) was “Form A”, the “Imp.1 (RRT 0.68)” value ([2]; 4 weeks, 40° C./75% RH) was 0.10 % Area and the “Purity vs. initial (%)” value ([2]; 4 weeks, 40° C./75% RH) was 100.0%. For the same compound, the “API (RRT 1.00)” value ([2]; 4 weeks, 60° C.) was 99.90 % Area, the Description ([2]; 4 weeks, 60° C.) was “White powder” and the “Final Form” value ([2]; 4 weeks, 60° C.) was “Form A”. For the same compound, the “Imp.1 (RRT 0.68)” value ([2]; 4 weeks, 60° C.) was 0.10 % Area, the “Purity vs. initial (%)” value ([2]; 4 weeks, 60° C.) was 100.0% and the “HPLC purity change on storage” value [2, 6] was “no obvious HPLC purity change”. For the same compound, the “form change on storage (XRPD)” value [2, 6] was “no form change”, the “Final Form” value ([3]; FaSSIF (pH 6.5), 1 hr) was “Form A” and the “Final Form” value ([3]; FaSSIF (pH 6.5), 4 hr) was “Form A”. For the same compound, the “Final Form” value ([3]; FaSSIF (pH 6.5), 24 hr) was “Form A”, the “Final Form” value ([3]; FeSSIF (pH 5.0), 1 hr) was “Form A” and the “Final Form” value ([3]; FeSSIF (pH 5.0), 4 hr) was “Form A”. The “Final Form” value ([3]; FeSSIF (pH 5.0), 24 hr) was “Form A”, the “Final Form” value ([3]; H2O (pH 6.5), 1 hr) was “Form A” and the “Final Form” value ([3]; H2O (pH 6.5), 4 hr) was “Form A”. The “Final Form” value ([3]; H2O (pH 6.5), 24 hr) was “Form A”, the “Final Form” value ([3]; SGF (pH 1.8), 1 hr) was “Form A” and the “Final Form” value ([3]; SGF (pH 1.8), 4 hr) was “Form A”. For the same compound, the “Final Form” value ([3]; SGF (pH 1.8), 24 hr) was “Form A”, the “form change after kinetic solubility test (XRPD)” value ([3]; bio-relevant media or H2O) was “No form change” and the Final Form ([4]; pH 2.0 (50 mM HCl—KCl)) was “Form A”. For the same compound, the Final Form ([4]; pH 4.0 (50 mM Citrate)) was “Form A”, the Final Form ([4]; pH 6.0 (50 mM Citrate)) was “Form A” and the Final Form ([4]; pH 7.0 (50 mM Phosphate)) was “Form A”. The Final Form ([4]; pH 8.0 (50 mM Phosphate)) was “Form A”, the “form change after equilibrium solubility evaluation (XRPD)” value ([4]; pH buffers) was “no form change” and the “API (RRT 1.00)” value ([5]; pH 2.0 (50 mM HCl—KCl), 24 hrs) was 84.93 % Area. The “Imp. 1 (RRT 0.66)” value ([5]; pH 2.0 (50 mM HCl—KCl), 24 hrs) was 0.15 % Area, the “Imp. 1 (RRT 0.70)” value ([5]; pH 2.0 (50 mM HCl—KCl), 24 hrs) was 0.67 % Area and the “Imp. 1 (RRT 0.76)” value ([5]; pH 2.0 (50 mM HCl—KCl), 24 hrs) was 14.25 % Area. For the same compound, the “Imp. 1 (RRT 1.05)” value ([5]; pH 2.0 (50 mM HCl—KCl), 24 hrs) was “— (—: <0.05 area %)”, the “Purity vs. initial (%)” value ([5]; pH 2.0 (50 mM HCl—KCl), 24 hrs) was 85.1% and the degradation in solution ([5]; pH 2.0 and pH 4.0 buffers, 24 hrs) was “Degradation was observed”. For the same compound, the “API (RRT 1.00)” value ([5]; pH 4.0 (50 mM Citrate), 24 hrs) was 98.42 % Area, the “Imp. 1 (RRT 0.66)” value ([5]; pH 4.0 (50 mM Citrate), 24 hrs) was 0.15 % Area and the “Imp. 1 (RRT 0.70)” value ([5]; pH 4.0 (50 mM Citrate), 24 hrs) was “— (—: <0.05 area %)”. For the same compound, the “Imp. 1 (RRT 0.76)” value ([5]; pH 4.0 (50 mM Citrate), 24 hrs) was 0.38 % Area, the “Imp. 1 (RRT 1.05)” value ([5]; pH 4.0 (50 mM Citrate), 24 hrs) was 0.06 % Area and the “Purity vs. initial (%)” value ([5]; pH 4.0 (50 mM Citrate), 24 hrs) was 98.5%. For the same compound, the “API (RRT 1.00)” value ([5]; pH 6.0 (50 mM Citrate), 24 hrs) was 99.75 % Area, the “Imp. 1 (RRT 0.66)” value ([5]; pH 6.0 (50 mM Citrate), 24 hrs) was 0.13 % Area and the “Imp. 1 (RRT 0.70)” value ([5]; pH 6.0 (50 mM Citrate), 24 hrs) was “— (—: <0.05 area %)”. The “Imp. 1 (RRT 0.76)” value ([5]; pH 6.0 (50 mM Citrate), 24 hrs) was 0.06 % Area, the “Imp. 1 (RRT 1.05)” value ([5]; pH 6.0 (50 mM Citrate), 24 hrs) was 0.06 % Area and the “Purity vs. initial (%)” value ([5]; pH 6.0 (50 mM Citrate), 24 hrs) was 99.8%. For the same compound, the “API (RRT 1.00)” value [5, 7] was 99.78 % Area, the “Imp. 1 (RRT 0.66)” value [5, 7] was 0.15 % Area and the “Imp. 1 (RRT 0.70)” value [5, 7] was “— (—: <0.05 area %)”. The “Imp. 1 (RRT 0.76)” value [5, 7] was “— (—: <0.05 area %)”, the “Imp. 1 (RRT 1.05)” value [5, 7] was 0.07 % Area and the “Purity vs. initial (%)” value [5, 7] was 99.9%. The “API (RRT 1.00)” value [5, 8] was 99.81 % Area, the “Imp. 1 (RRT 0.66)” value [5, 8] was 0.13 % Area and the “Imp. 1 (RRT 0.70)” value [5, 8] was “— (—: <0.05 area %)”. For the same compound, the “Imp. 1 (RRT 0.76)” value [5, 8] was “— (—: <0.05 area %)”, the “Imp. 1 (RRT 1.05)” value [5, 8] was 0.06 % Area and the “Purity vs. initial (%)” value [5, 8] was 100.0%. For the same compound, the “API (RRT 1.00)” value [5, 9] was 99.83 % Area, the “Imp. 1 (RRT 0.66)” value [5, 9] was 0.13 % Area and the “Imp. 1 (RRT 0.70)” value [5, 9] was “— (—: <0.05 area %)”. For the same compound, the “Imp. 1 (RRT 0.76)” value [5, 9] was “— (—: <0.05 area %)”, the “Imp. 1 (RRT 1.05)” value [5, 9] was 0.04 % Area and the “Purity vs. initial (%)” value [5, 9] was 100.0%.
